From US8399512B2, “Biocompatible biodegradable fumagillin analog conjugates” (Mersana Therapeutics, Inc., priority 2007, dated 2013) come the findings set out here.

Assay [1] has as its system human umbilical vein endothelial cells (HUVECs). As to the kind of experiment: Inhibitory effect on HUVEC cell growth (MTS/PES colorimetry). The conditions noted are these: cultured 5 days, MTS/PES absorbance 490 nm. The format is cell-based. The method, then: Using human umbilical vein endothelial cells (HUVECs), the effect of the fumagillin analog conjugates and the fumagillin analogs on cell growth was evaluated.
The HUVECs were added to M199 medium supplemented with 20% FBS, after which the cells were incubated at 37° C. under 5% CO2. 96-well plates were seeded at 5,000 cells/well in a total volume of 100 μL. The cells were left overnight to attach to the plate. Cells were subcultured a maximum of 15 times before being discarded.
To evaluate the inhibitory activity of the fumagillin conjugate or the fumagillin analog alone on the growth of HUVEC cells, the conjugate or fumagillin analog was dissolved in the required amount of 0.9% saline, vortexed briefly to wet and disperse the solids, followed by vortexing for a total of 30 min. […] The cells were treated with the conjugate solution or fumagillin analog solution at various concentrations ranging from 30 nM to 0.01 nM, and cultured for 5 days at 37° C.
Colorimetry was performed to determine the extent of cell growth by adding 20 μL of MTS/PES reagent to each well, incubation for 4 h at 37° C. followed by measuring the absorbance at 490 nm.

Another assay relates to B16F10 tumor cells. As to the kind of experiment: Tumor growth delay in B16F10 mouse melanoma. The format is in vivo. The settings on record: IV, q3d × 4, BDF1 mice. The method, then: BDF1 female mice (N=6) with 1×10^6 B16F10 tumor cells positioned subcutaneous in the flank were treated with various fumagillin conjugates of the invention. Tumor growth was monitored in parallel with positive and negative controls of cyclophosphamide and saline respectively. Treatment began when tumors reached an average size of 80-120 mg and tumor volumes were measured two times per week until animals reached an endpoint tumor volume of 2 grams or 45 days, whichever came first. Conjugates were administered as solutions in saline intravenously at dose levels of 30-100 mg/kg (expressed as fumagillin analog equivalents) on a schedule of q3dx4. Treatment outcomes were assessed in terms of percent tumor growth delay (% TGD), (see FIG. 1) defined as the percent increase in median time to endpoint for mice treated with an agent compared to those treated with saline.

Where [2] appears, read: 80 mg/kg fumagillin analog equiv.

Bounds are passed on as bounds.

One may read the IC50 as the concentration that inhibits the measured activity by half. A high value points to lower potency. `COC(=O)C12CCC(C(=O)O[C@@H]3CC[C@]4(CO4)[C@@H](C4(C)O[C@@H]4CC=C(C)C)[C@@H]3OC)(CC1)CC2` (stereo partly shown) [Compound 1]: in assay [1] (Homo sapiens, 120 h), the IC50 was below 25 nM.
Same read-out and setting: under `CO[C@H]1[C@H](C2(C)O[C@@H]2CC=C(C)C)[C@]2(CC[C@H]1OC(=O)NC(=O)CCl)CO2` (stereo partly shown) [Compound 2] stands below 25 nM.
Still for that read-out and setting: as for `COC(=O)[C@@H](N)CSCC(=O)NC(=O)O[C@@H]1CC[C@]2(CO2)[C@@H](C2(C)O[C@@H]2CC=C(C)C)[C@@H]1OC` (stereo partly shown) [Compound 3], the figure is below 25 nM.
`CO[C@H]1[C@H](C2(C)O[C@@H]2CC=C(C)C)[C@]2(CC[C@H]1OC(=O)/C=C/c1ccc(O)cc1)CO2` (stereo partly shown) [Compound 4] yielded an IC50 in assay [1] (Homo sapiens, 120 h) above 30 nM.
Turning to `CO[C@H]1[C@H](C2(C)O[C@@H]2CC=C(C)C)[C@]2(CC[C@H]1OC(=O)NCc1ccccc1)CO2` (stereo partly shown) [Compound 5], the IC50 in assay [1] (Homo sapiens, 120 h) was below 25 nM.
In assay [1] (Homo sapiens, 120 h), `CO[C@H]1[C@H](C2(C)O[C@@H]2CC=C(C)C)[C@]2(CC[C@H]1OC(=O)N[C@@H](C)c1ccccc1)CO2` (stereo partly shown) [Compound 6] displayed an IC50 below 25 nM. Further, in the assay with B16F10 tumor cells (setting [2]), the “% TGD” value is 5-20%.
For `CO[C@H]1[C@H](C2(C)O[C@@H]2CC=C(C)C)[C@]2(CC[C@H]1OC(=O)N1CCN(CCO)CC1)CO2` (stereo partly shown) [Compound 7] the same measures were below 25 nM and 5-20%.
In the case of `CCN1CCN(C(=O)O[C@@H]2CC[C@]3(CO3)[C@@H](C3(C)O[C@@H]3CC=C(C)C)[C@@H]2OC)CC1` (stereo partly shown) [Compound 9], the IC50 in assay [1] (Homo sapiens, 120 h) was below 25 nM. In addition, the “% TGD” value in the assay with B16F10 tumor cells (100 mg/kg fumagillin analog equiv.) is recorded as 20-50%.
Turning to `CO[C@H]1[C@H](C2(C)O[C@@H]2CC=C(C)C)[C@]2(CC[C@H]1OC(=O)N1CCN(C(C)=O)CC1)CO2` (stereo partly shown) [Compound 10], the half-maximal inhibitory concentration (IC50) in assay [1] (Homo sapiens, 120 h) is below 25 nM. In addition, the “% TGD” value with B16F10 tumor cells (60 mg/kg fumagillin analog equiv.) is on record as 20-50%.
In assay [1] (Homo sapiens, 120 h), `CO[C@H]1[C@H](C2(C)O[C@@H]2CC=C(C)C)[C@]2(CC[C@H]1OC(=O)NCCc1ccc(N)cc1)CO2` (stereo partly shown) [Compound 11] showed a half-inhibitory concentration (IC50) below 25 nM. Further, the “% TGD” value in the assay on B16F10 tumor cells (65 mg/kg fumagillin analog equiv.) was 20-50%.
`CO[C@H]1[C@H](C2(C)O[C@@H]2CC=C(C)C)[C@]2(CC[C@H]1OC(=O)N[C@H](C)c1ccccc1)CO2` (stereo partly shown) [Compound 12] came in with a half-maximal inhibitory concentration (IC50) in assay [1] (Homo sapiens, 120 h) below 25 nM. In addition, in the assay on B16F10 tumor cells (setting [2]), the “% TGD” value is recorded as 5-20%.
In assay [1] (Homo sapiens, 120 h), `CO[C@H]1[C@H](C2(C)O[C@@H]2CC=C(C)C)[C@]2(CC[C@H]1OC(=O)/C=C/c1ccccc1)CO2` (stereo partly shown) [Compound 13] returned an IC50 above 30 nM. Moreover, the “% TGD” value in the assay with B16F10 tumor cells (setting [2]) was 5-20%.
Regarding `COC(=O)[C@@H](N)CSCC(=O)NC(=O)O[C@@H]1CC[C@]2(CO2)[C@@H](C2(C)O[C@@H]2CC=C(C)C)[C@@H]1OC` (stereo partly shown) [Compound 14], in assay [1], the 50% inhibitory concentration (IC50) was below 25 nM.
Consider `CO[C@H]1[C@H](C2(C)O[C@@H]2CC=C(C)C)[C@]2(CC[C@H]1OC(=O)C(=O)N(C)OC)CO2` (stereo partly shown) [Compound 15], for which the IC50 in assay [1] (Homo sapiens, 120 h) was above 30 nM. Also, the “% TGD” value in the assay with B16F10 tumor cells (setting [2]) is listed as above 50%.
For `COC(=O)C(=O)O[C@@H]1CC[C@]2(CO2)[C@@H](C2(C)O[C@@H]2CC=C(C)C)[C@@H]1OC` (stereo partly shown) [Compound 16] the same measures were above 30 nM and 20-50%.
`CO[C@H]1[C@H](C2(C)O[C@@H]2CC=C(C)C)[C@]2(CC[C@H]1OC(=O)NCc1ccc(NC(C)=O)cc1)CO2` (stereo partly shown) [Compound 17]: the IC50 in assay [1] (Homo sapiens, 120 h) was below 25 nM.
In assay [1] (Homo sapiens, 120 h), `CO[C@H]1[C@H](C2(C)O[C@@H]2CC=C(C)C)[C@]2(CC[C@H]1OC(=O)NCCc1ccc(NC(C)=O)cc1)CO2` (stereo partly shown) [Compound 18] had an IC50 below 25 nM. Also, the “% TGD” value in the assay with B16F10 tumor cells (setting [2]) was 5-20%.
Consider `CO[C@H]1[C@H](C2(C)O[C@@H]2CC=C(C)C)[C@]2(CC[C@H]1NC(=O)c1ccc([N+](=O)[O-])cc1)CO2` (stereo partly shown) [Compound 19], for which, in assay [1] (Homo sapiens, 120 h), the concentration for half-maximal inhibition (IC50) is below 25 nM. Also, the “% TGD” value in the assay on B16F10 tumor cells (40 mg/kg fumagillin analog equiv.) was 20-50%.
Compound `CO[C@@H]1C(=O)CC[C@]2(CO2)[C@H]1C1(C)O[C@@H]1CC=C(C)C` (stereo partly shown) [Compound 20] yielded a half-inhibitory concentration (IC50) in assay [1] (Homo sapiens, 120 h) below 25 nM.
Same read-out and setting: as for `COc1cc(/C=C/C(=O)O[C@@H]2CC[C@]3(CO3)[C@@H](C3(C)O[C@@H]3CC=C(C)C)[C@@H]2OC)cc(OC)c1OC` (stereo partly shown) [Compound 21], the figure is below 25 nM.
For the compound `CCOC(=O)CCN1CCN(C(=O)O[C@@H]2CC[C@]3(CO3)[C@@H](C3(C)O[C@@H]3CC=C(C)C)[C@@H]2OC)CC1` (stereo partly shown) [Compound 22], the IC50 in assay [1] (Homo sapiens, 120 h) is below 25 nM. In addition, in the assay with B16F10 tumor cells (30 mg/kg fumagillin analog equiv.), the “% TGD” value is given as 5-20%.
Consider `CO[C@H]1[C@H](C2(C)O[C@@H]2CC=C(C)C)[C@]2(CC[C@H]1OC(=O)/C=C/C=C/C=C/C=C/C(=O)O)CO2` (stereo partly shown) [Compound 24], for which, in assay [1] (Homo sapiens, 120 h), the IC50 is below 25 nM.
On the same count and under the same terms, as for `CO[C@H]1[C@H](C2(C)O[C@@H]2CC=C(C)C)[C@]2(CC[C@H]1NC(=O)NC(=O)CCl)CO2` (stereo partly shown) [Compound 28], the figure is below 25 nM; as for `CCOC(=O)C1CCC(CNC(=O)O[C@@H]2CC[C@]3(CO3)[C@@H](C3(C)O[C@@H]3CC=C(C)C)[C@@H]2OC)CC1` (stereo partly shown) [Compound 29], below 25 nM; as for `CO[C@H]1[C@H](C2(C)O[C@@H]2CC=C(C)C)[C@]2(CC[C@H]1OC(=O)NC(=O)CSc1ccc(N)cc1)CO2` (stereo partly shown) [Compound 30], below 25 nM.
In assay [1] (Homo sapiens, 120 h), `CO[C@H]1[C@H](C2(C)O[C@@H]2CC=C(C)C)[C@]2(CC[C@H]1OC(=O)NC(=O)CSc1ccc(C(=O)O)cc1)CO2` (stereo partly shown) [Compound 34] yielded a half-maximal inhibitory concentration (IC50) below 25 nM.
Still for that read-out and setting: under `CO[C@H]1[C@H](C2(C)O[C@@H]2CC=C(C)C)[C@]2(CC[C@H]1OC(=O)/C=C/c1ccc(OCCN(C)C)cc1)CO2` (stereo partly shown) [Compound 36] stands below 25 nM.
Consider `COc1cc(/C=C/C(=O)N[C@@H]2CC[C@]3(CO3)[C@@H](C3(C)O[C@@H]3CC=C(C)C)[C@@H]2OC)cc(OC)c1OC` (stereo partly shown) [Compound 37], for which the IC50 in assay [1] (Homo sapiens, 120 h) fell in the range of 25 to 100 nM.
Still for that read-out and setting: as for `CO[C@H]1[C@H](C2(C)O[C@@H]2CC=C(C)C)[C@]2(CC[C@H]1NC(=O)C13CCC(C(=O)NCCCOC(=O)[C@H](C)N)(CC1)CC3)CO2` (stereo partly shown) [Compound 41], the figure is 100 to 300 nM; as for `CO[C@H]1[C@H](C2(C)O[C@@H]2CC=C(C)C)[C@]2(CC[C@H]1NC(=O)C13CCC(C(=O)NCCCOC(=O)C4CCCN4)(CC1)CC3)CO2` (stereo partly shown) [Compound 42], 100 to 300 nM; as for `COC(=O)C12CCC(C(=O)N[C@@H]3CC[C@]4(CO4)[C@@H](C4(C)O[C@@H]4CC=C(C)C)[C@@H]3OC)(CC1)CC2` (stereo partly shown) [Compound 43], below 25 nM.
`CO[C@H]1[C@H](C2(C)O[C@@H]2CC=C(C)C)[C@]2(CC[C@H]1NC(=O)CSc1ccc(N)cc1)CO2` (stereo partly shown) [Compound 45]: in assay [1] (Homo sapiens, 120 h), the concentration for half-maximal inhibition (IC50) was below 25 nM.
Still for that read-out and setting: under `COC(=O)c1ccc(C(=O)N[C@@H]2CC[C@]3(CO3)[C@@H](C3(C)O[C@@H]3CC=C(C)C)[C@@H]2OC)cc1` (stereo partly shown) [Compound 46] stands below 25 nM; under `CO[C@H]1[C@H](C2(C)O[C@@H]2CC=C(C)C)[C@]2(CC[C@H]1OC(=O)NS(=O)(=O)N1CCN(C(C)=O)CC1)CO2` (stereo partly shown) [Compound 47], below 25 nM.
`CO[C@H]1[C@H](C2(C)O[C@@H]2CC=C(C)C)[C@]2(CC[C@H]1NC(=O)c1ccc(C(=O)NCCCO)cc1)CO2` (stereo partly shown) [Compound 48] displayed an IC50 in assay [1] (Homo sapiens, 120 h) below 25 nM.
The same measure, in the same setting: under `CO[C@H]1[C@H](C2(C)O[C@@H]2CC=C(C)C)[C@]2(CC[C@H]1NC(=O)C13CCC(C(=O)NCCCOC(=O)[C@@H]4CCCN4)(CC1)CC3)CO2` (stereo partly shown) [Compound 49] stands 100 to 300 nM; under `CO[C@H]1[C@H](C2(C)O[C@@H]2CC=C(C)C)[C@]2(CC[C@H]1OC(=O)NCc1ccc(NC(=O)[C@H](C)N)cc1)CO2` (stereo partly shown) [Compound 50], below 25 nM; under `CO[C@H]1[C@H](C2(C)O[C@@H]2CC=C(C)C)[C@]2(CC[C@H]1OC(=O)NC(=O)CSc1cccc(NC(=O)CCC(=O)O)c1)CO2` (stereo partly shown) [Compound 52], below 25 nM.
Regarding `CO[C@H]1[C@H](C2(C)O[C@@H]2CC=C(C)C)[C@]2(CC[C@H]1NC(=O)N1CCN(CCO)CC1)CO2` (stereo partly shown) [Compound 53], the IC50 in assay [1] (Homo sapiens, 120 h) lay within 25 to 100 nM.
On the same count and under the same terms, as for `CO[C@H]1[C@H](C2(C)O[C@@H]2CC=C(C)C)[C@]2(CC[C@H]1OC(=O)N1CCN(CCOC(=O)CCC(=O)O)CC1)CO2` (stereo partly shown) [Compound 54], the figure is below 25 nM.
Same read-out and setting: as for `CO[C@H]1[C@H](C2(C)O[C@@H]2CC=C(C)C)[C@]2(CC[C@H]1OC(=O)N1CCN(CCOC(=O)C3CCCN3C(=O)OCC3c4ccccc4-c4ccccc43)CC1)CO2` (stereo partly shown) [Compound 55], the figure is below 25 nM; as for `CO[C@H]1[C@H](C2(C)O[C@@H]2CC=C(C)C)[C@]2(CC[C@H]1OC(=O)N1CCN(C(=O)[C@H](C)N)CC1)CO2` (stereo partly shown) [Compound 56], below 25 nM; as for `CO[C@H]1[C@H](C2(C)O[C@@H]2CC=C(C)C)[C@]2(CC[C@H]1NC(=O)NCCc1ccc(N)cc1)CO2` (stereo partly shown) [Compound 57], below 25 nM.
